The values that follow are results of earlier work, collected in paper PMC4096870 (ChemMedChem, 2014).

Structures are written as SMILES.

The term Ki denotes the equilibrium dissociation constant of an inhibitor or competing ligand from its target. What is called kinact is the maximal first-order rate at which the target is inactivated. Broadly, the kinact/KI is the maximal inactivation rate divided by the concentration that gives half of it. The term IC50 denotes the concentration that gives 50% inhibition.

For the compound `C=CS(=O)(=O)c1ccccc1` [PVS, phenyl vinyl sulfone], on YopH, the Ki was 350 µM, the maximal inactivation rate constant (kinact) is 0.001 s⁻¹ and the inactivation efficiency (kinact/KI) is 2.9 M⁻¹ s⁻¹.

Regarding `C=CS(=O)(=O)Oc1ccccc1` [PVSN, phenyl vinyl sulfonate], on YopH, the inhibition constant Ki was 290 µM and the kinact was 0.01 s⁻¹.

In the case of `O=C(Oc1cc(O)cc2c1C[C@@H](OC(=O)c1cc(O)c(O)c(O)c1)[C@@H](c1cc(O)c(O)c(O)c1)O2)c1cc(O)c(O)c(O)c1` [epigallocatechin-3,5-digallate], the IC50 in the data set with LYP is 0.05 µM.

In the case of `O=P(O)(O)C(Br)c1ccccc1` (stereo not drawn) [BBP, α-bromobenzyl phosphonate], on YopH, the inhibition constant Ki was 4100 µM, the kinact was 0.002 s⁻¹ and the kinact/KI was 0.49 M⁻¹ s⁻¹.
